# Key:
# [1] = molecular target: T1, β-galactosidase (Escherichia coli, UniProt P00722); assay type: in vitro ADME; conditions: 24 h at 37° C.; for hydrolysis after incubation with β-galactosidase, mass spectra with vs without enzyme: ammonium acetate buffer 10 mM pH 7, β-galactosidase 4.5 U, MS (ESI)
# T1 construct: purchased Sigma 48275
# Protocol: The enzymatic stability has been performed with compound Ad1 and Ad2 according to the invention and compound B used as a reference compound to control the efficacy of the β-galactosidase. Both compounds have been treated with β-galactosidase. The stability of compound Ad1 and Ad2 has been assessed by mass spectrum (MS) analysis after incubation with β-galactosidase. The samples have been injected and ionized by electrospray (ES) (in positive and negative mode). The procedure has been adapted from Maljaars et al. J. Comb. Chem. 2006, 8, 812-819.
# Test compound Ad1 (12 μmol, 5.3 mg) in 1.5 mL ammonium acetate buffer (10 mM, pH 7) was kept 24 h at 37° C. in the presence and absence of β-galactosidase (4.5 U, 32 μL of a 1 mg·mL^−1 solution in ammonium acetate buffer, (48275 sigma, 140 U per mg)). 300 μL of the sample was filtered through a 3-kDa-cutoff centrifugal filter (Millipore), and the filter was washed with H2O (2×300 μL). The obtained solutions were diluted in water/methanol 1:1 (3 μL in 1 mL).
# Test compound Ad2 (12 μmol, 5.3 mg) has been treated in the presence and absence of β-galactosidase following the same process.
# These samples of compound Ad1 and Ad2 in presence of β-galactosidase have been submitted to mass spectra and compared to the mass spectra of compound Ad1 and Ad2 in absence of β-galactosidase.
# The two samples were also analyzed by F-NMR to confirm that the test compound Ad1 and Ad2 were not cleaved by the β-galactosidase.
# In parallel, p-nitrophenyl-β-galactoside (compound B, 12 μmol, 3.6 mg) in 1.5 mL ammonium acetate buffer (10 mM, pH 7) was kept 24 h at 37° C. in the presence and absence of β-galactosidase (4.5 U, 32 μL of a 1 mg·mL^−1 solution in ammonium acetate buffer (48275 sigma, 140 U per mg)).
# The optical density (OD) of the two samples was measured at 420 nm to verify that the β-galactosidase is working and that degradation occurs on compound B (OD420 with β-galactosidase=1.5786/OD420 without β-galactosidase=0.0465).
# [2] = molecular target: T2, α-galactosidase (Coffea arabica, UniProt Q42656); assay: Enzymatic stability of α-Gal-CF2-Ser pseudo-glycosidic bond with α-galactosidase; assay type: in vitro ADME; conditions: 24 h at 37° C.; for hydrolysis after incubation with α-galactosidase, mass spectra with vs without enzyme: ammonium acetate buffer 10 mM pH 7, α-galactosidase 2.25 U, MS; for cleavage by α-galactosidase, F-NMR analysis: ammonium acetate buffer pH 7, α-galactosidase 2.25 U
# T2 construct: purchased Sigma G8507
# Protocol: The enzymatic stability has been performed with compounds Cd1, Cd2, Dd1 and Dd2 according to the invention and compound F was used as a reference compound to control the efficacy of the α-galactosidase. All the compounds have been treated with α-galactosidase. The stability of compounds Cd1, Cd2, Dd1 and Dd2 has been assessed by MS analysis after incubation with α-galactosidase. The procedure has been adapted from Maljaars et al. J. Comb. Chem. 2006, 8, 812-819.
# Test compound Cd1 ([…], 1.8 mg) in 0.75 mL ammonium acetate buffer (10 mM, pH 7) was kept 24 h at 37° C. in the presence and absence of α-galactosidase (2.25 U, 41 μL of a 3.7 mg·mL^−1 suspension in ammonium sulphate (G8507 sigma, 14.7 U/mg)). 300 μL of the samples were filtered through a 3-kDa-cutoff centrifugal filter (Millipore) and the filter was washed with H2O (2×300 μL). The resultant solutions were diluted in water/methanol 1:1 (3 μL in 1 mL);
# Test compound Cd2 ([…], 5.3 mg) has been treated in the presence and absence of α-galactosidase following the same process.
# The samples of compound Cd1 and Cd2 in presence of α-galactosidase have been analyzed by mass spectrometry and their spectra compared to the mass spectra of compound Cd1 and Cd2 in absence of α-galactosidase.
# The same procedure was applied to compound Dd1 ([…], 2.6 mg) and Dd2 ([…], 2.6 mg).
# In parallel, p-nitrophenyl-α-galactoside (compound F, 6 μmol, 1.8 mg) in 0.75 mL of ammonium acetate buffer (10 mM, pH 7) was kept 24 h at 37° C. in the presence and absence of α-galactosidase 2.25 U, 41 μL of a 3.7 mg·mL^−1 suspension in ammonium sulphate ((G8507 sigma) 14.7 U/mg). The OD of the two samples was measured at 420 nm to verify that the α-galactosidase is working and that degradation occurs on compound F (OD420 with α-galactosidase=1.6303/OD420 without α-galactosidase=0.0124).
# [3] = system: neonatal human skin fibroblasts (Cell line: CCD-27SK); assay: Preservation of neonatal skin fibroblasts under starvation conditions (Trypan blue viability assay); assay type: cell-based; conditions: for effect on skin fibroblasts under unfavorable conditions for growth: 5 mg/ml in starvation medium, 7 days
# Protocol: • The neonatal human skin fibroblasts (Cell line: CCD-27SK, ATCC number CRL-1475) were grown with DMEM medium supplemented with Fetal Bovine Serum 10% final, antibiotics (Penicillin/Streptomycin) 1% final and Amphotericin B 0.1% final. • Fibroblasts were grown in 75 cm^2 culture flask to 80% confluence, in 37° C. and 10% CO2 incubator. The medium was changed every two days by 37° C. preheated fresh medium. Starvation Medium • This medium was composed of 45% subculture medium without Fetal Bovine Serum mixed with 55% of Phosphate Buffer Saline 1× containing EDTA (final concentration of 0.45 mM). This was referred to as serum free or starvation medium. Product Preparation • The compounds 13(b)αd1 and 13(b)αd2 (M=479.9 g/mol) were diluted in starvation medium to 5 mg/ml final and pH was adjusted at 7.4 by addition of NaOH 1N. […] So, only the dead cells are blue at microscopic observation. • For sampling, 110 μl of Trypan Blue (SIGMA T8154) was added to 110 μl of trypsinated cell suspension of matching well for counting. • 200 μl of the trypan blue/cell mixture are dropped to a hemacytometer. Cells are counting by using a Neubauer-counting chamber. The unstained (viable) and stained (nonviable) cells are counted separately on 9 area of a large square (1 mm^2) and added to obtain the total number of cells per sample. An average of three counts was used to calculate the viability percentage as: [number of viable cells/total number of cells]*100 • The cell viability percentages from cultures under starvation conditions were compared with control culture for several days after their addition (D0, D3, D4, D5, D6, D7). Results
# [4] = ammonium acetate buffer pH 7, β-galactosidase 4.5 U
# T1 sequence (P00722 2-1024): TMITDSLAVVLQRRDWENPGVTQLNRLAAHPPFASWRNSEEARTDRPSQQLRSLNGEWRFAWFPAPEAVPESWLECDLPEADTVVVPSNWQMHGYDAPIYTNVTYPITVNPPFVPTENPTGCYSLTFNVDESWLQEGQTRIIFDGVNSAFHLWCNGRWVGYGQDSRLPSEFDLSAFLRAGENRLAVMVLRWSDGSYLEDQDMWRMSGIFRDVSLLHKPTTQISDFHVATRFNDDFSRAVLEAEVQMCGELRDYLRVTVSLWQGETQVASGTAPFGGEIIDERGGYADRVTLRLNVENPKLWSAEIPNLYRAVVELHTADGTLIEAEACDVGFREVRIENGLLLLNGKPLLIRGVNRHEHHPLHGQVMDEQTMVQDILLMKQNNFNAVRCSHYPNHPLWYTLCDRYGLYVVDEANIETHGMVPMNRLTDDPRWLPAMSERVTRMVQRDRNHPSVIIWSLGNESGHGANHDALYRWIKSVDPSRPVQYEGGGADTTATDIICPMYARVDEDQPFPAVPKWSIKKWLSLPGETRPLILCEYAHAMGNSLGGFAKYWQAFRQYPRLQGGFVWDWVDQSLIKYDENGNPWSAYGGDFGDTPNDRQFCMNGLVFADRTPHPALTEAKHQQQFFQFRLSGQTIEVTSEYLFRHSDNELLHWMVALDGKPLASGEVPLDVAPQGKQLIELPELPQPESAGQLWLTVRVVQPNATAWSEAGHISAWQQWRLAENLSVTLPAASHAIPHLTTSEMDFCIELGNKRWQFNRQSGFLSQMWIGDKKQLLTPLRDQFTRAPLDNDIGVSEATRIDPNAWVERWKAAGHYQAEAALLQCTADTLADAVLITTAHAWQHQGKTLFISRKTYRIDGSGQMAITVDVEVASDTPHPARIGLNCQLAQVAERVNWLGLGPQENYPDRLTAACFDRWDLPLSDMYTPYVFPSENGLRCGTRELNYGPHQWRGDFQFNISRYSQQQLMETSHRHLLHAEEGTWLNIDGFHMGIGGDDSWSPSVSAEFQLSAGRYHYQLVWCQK
# T2 sequence (Q42656 16-378): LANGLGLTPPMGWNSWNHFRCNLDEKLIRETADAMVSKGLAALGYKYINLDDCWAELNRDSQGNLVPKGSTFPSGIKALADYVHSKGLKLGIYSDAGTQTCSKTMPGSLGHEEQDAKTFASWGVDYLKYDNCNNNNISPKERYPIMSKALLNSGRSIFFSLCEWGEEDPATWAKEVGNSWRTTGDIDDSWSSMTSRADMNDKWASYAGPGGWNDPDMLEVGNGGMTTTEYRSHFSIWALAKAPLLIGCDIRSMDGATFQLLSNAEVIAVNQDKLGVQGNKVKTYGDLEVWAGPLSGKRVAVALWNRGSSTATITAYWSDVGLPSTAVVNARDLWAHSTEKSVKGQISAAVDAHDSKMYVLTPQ
SMILES,"hydrolysis after incubation with α-galactosidase, mass spectra with vs without enzyme [2]","cleavage by α-galactosidase, F-NMR analysis [2]",other results
C[C@H](NC(=O)[C@H](C)NC(=O)C(N)CC(F)(F)[C@@H]1O[C@H](CO)[C@H](O)[C@H](O)[C@H]1O)C(=O)O (stereo partly shown) [Ad2],,,"hydrolysis after incubation with β-galactosidase, mass spectra with vs without enzyme [1]: no hydrolysis occurs; cleavage by β-galactosidase, F-NMR analysis [1, 4]: not cleaved"
NC(CC(F)(F)[C@H]1O[C@H](CO)[C@H](O)[C@H](O)[C@H]1O)C(=O)O (stereo partly shown) [Cd1],no hydrolysis occurs,not cleaved,
"C[C@H](NC(=O)[C@H](C)NC(=O)C(N)CC(F)(F)[C@H]1O[C@H](CO)[C@H](O)[C@H](O)[C@H]1O)C(=O)O (single isomer, unassigned) [Dd2]",no hydrolysis occurs,not cleaved,
"O=[N+]([O-])c1ccc(O[C@@H]2O[C@H](CO)[C@H](O)[C@H](O)[C@H]2O)cc1 [B, p-nitrophenyl-β-galactoside, reference compound]",,,"visual observation in the presence of β-galactosidase (decomposition) [1, 4]: yellow coloration was observed"
"C[C@H](NC(=O)[C@H](C)NC(=O)C(N)CC(F)(F)[C@H]1O[C@H](CO)[C@H](O)[C@H](O)[C@H]1O)C(=O)O (single isomer, unassigned) [13(b)αd1]",,,"effect on skin fibroblasts under unfavorable conditions for growth [3]: preservative effect; viability at 5000 µg/mL ([3]; Homo sapiens, CCD-27Sk, 168 h, 5 mg/ml in starvation (serum free) medium, up to 7 days of incubation, Trypan blue exclusion, read-out: fibroblast viability): ~95%"
C[C@H](NC(=O)[C@H](C)NC(=O)C(N)CC(F)(F)[C@@H]1O[C@H](CO)[C@H](O)[C@H](O)[C@H]1O)C(=O)O (stereo partly shown) [Ad1],,,"hydrolysis after incubation with β-galactosidase, mass spectra with vs without enzyme [1]: no hydrolysis occurs; cleavage by β-galactosidase, F-NMR analysis [1, 4]: not cleaved"
NC(CC(F)(F)[C@H]1O[C@H](CO)[C@H](O)[C@H](O)[C@H]1O)C(=O)O (stereo partly shown) [Cd2],no hydrolysis occurs,not cleaved,
"C[C@H](NC(=O)[C@H](C)NC(=O)C(N)CC(F)(F)[C@H]1O[C@H](CO)[C@H](O)[C@H](O)[C@H]1O)C(=O)O (single isomer, unassigned) [Dd1]",no hydrolysis occurs,not cleaved,
"C[C@H](NC(=O)[C@H](C)NC(=O)C(N)CC(F)(F)[C@H]1O[C@H](CO)[C@H](O)[C@H](O)[C@H]1O)C(=O)O (single isomer, unassigned) [13(b)αd2]",,,effect on skin fibroblasts under unfavorable conditions for growth [3]: preservative effect
